Experimental data from patent US7504384B2 (priority 2000, dated 2009).

Legend:
HIV = HIV infectivity of supernatant from whole blood mixed with HIV, on HT4-1022 cells; assay type: cell-based; settings: whole blood mixed with HIV and Lipid-conjugate (50 μM Compound XXIV, 30 μM Compound XXII) for 30 min; FIG. 1.1
Excerpt: The cells were then spun and the supernatant was examined for HIV infectivity on HT4-1022 cells as described by Margolis-Nunno et al. (Transfusion, 36, 743-750, 1996).

HIV-1IIIB = assay: Inhibition of p24 production (HIV-1IIIB infection of MT-2 cells); assay type: cell-based; settings: fourth day, p24 ELISA
Method: Experiment 1.2: Inhibition of HIV-1IIIB Infection
After 1 h, half of the culture medium was changed and replaced by fresh medium (with/without Lipid-conjugate) and after 24 h, the second half of the culture medium was changed and replaced by fresh medium (with/without Lipid-conjugate). On the fourth day after incubation at 37° C., 100 μl of culture supernatants were collected from each well and an equal volume of fresh medium was added to the wells. The collected supernatants were mixed with an equal volume of 5% (v/v) Triton X-100 and assayed for p24 antigen using an ELISA kit from Coulter Immunology (Hialeah, Fla.).

[1] = system: HIV-1IIIB-infected H9 cells and uninfected MT-2 cells; assay: Inhibition of fusion between HIV-infected and uninfected cells; assay type: cell-based; settings: for IC50 (mean ± SD), inhibition of fusion / IC90 (mean ± SD), inhibition of fusion: H9/HIV-1 IIIB + MT-2 cells, 2 h; for IC50 / IC90: Table 1.4
Method: In this assay, HIV-1IIIB-infected H9 cells were labeled with BCECF (2′,7′-bis(2-carboxyethyl)-5-6-carboxyfluorescein-acetoxymethyl-ester, Molecular Probes, Eugene, Oreg.) according to the manufacturer's instructions. BCECF-labeled H9/HIV-1 IIIB cells (10^4) were mixed with 1×10^5 uninfected MT-2 cells. After incubation in a 96-well plate at 37° C. for 2 h, the fused and unfused labeled cells were counted under an inverted fluorescence microscope at ×160 magnification. At least 200 BCECF-labeled cells were counted and the proportion of fused cells was determined Fusion tests were carried out in the presence and absence of graded quantities of the tested Lipid-conjugates. […] The IC50 represents the concentration of a drug that is required to achieve 50% inhibition. Similarly, the IC90 represents the concentration of a drug that is required to achieve 90% inhibition.

[2] = target: V3 (third variable) domain of the HIV-1 envelope glycoprotein gp120; assay: V3 antibody binding (ELISA); design: species or system human immunodeficiency virus type 1 (HIV-1); settings: standard ELISA
Method: V3 antibody binding is an assay that uses an antibody that binds to the V3 (third variable) domain of the human immunodeficiency virus type 1 (HIV-1) envelope glycoprotein gp120. Anti-V3 domain antibodies may provide an indicator of the presence and amount of HIV. V3 antibody binding was determined by standard ELISA.

TNF-α and IL-6 in serum = assay: Serum cytokine levels in septic rats (ELISA); assay type: in vivo, rat
Method: Blood samples were collected 1, 6, 12, and 24 hours after LPS injection to assess cytokine concentrations (FIG. 4.3A). […] Thereafter, the animals received LPS (7.5 mg/kg) i.p. alone or together with Compound XXII (150 mg/kg) or Compound XXV (50 mg/kg). Blood samples were collected after LPS injection. A group of rats that was not treated with Lipid-conjugates or LPS served as negative controls (FIG. 4.3B). All cytokines were measured in separated serum by ELISA Immunoassays (R&D Systems GmbH, Wiesbaden, Germany) according to the instructions of the manufacturer.
In Experiment 4.5, sepsis was induced by LPS ([…] endotoxin, 5 mg/kg) and lipoteichoic acid (LTA, […] endotoxin, 5 mg/kg; Staph. aureus LTA, Sigma, Germany).

mice = assay: Acute (7 day) toxicity test; assay type: in vivo; settings: for Body weight (g) Final / Hematocrit % / RBC × 10^6 / WBC × 10^3: 7 day; for Body weight (g) Final / Hematocrit % / RBC × 10^6 / WBC × 10^3 / Body weight (g) Start: mean ± SEM; for toxicity: mortality rate, body weight, blood count, hematocrit, internal organ histology: mice, one week after a single i.p. dose of 1000, 500 or 200 mg/kg, versus untreated mice
Method: […] Mortality rate, body weight, blood count (red and white cells), hematocrit, and internal organ histology after sacrifice were assessed. These parameters were compared in Lipid-conjugate-treated and in control, untreated mice.

Influenza B virus = assay type: cell-based, Influenza type B, B/Hong Kong/330/02; settings: high concentration, Neutral Red Uptake Assay
[3] = system: Guinea pig tracheal rings; assay: Inhibition of tracheal ring contraction; settings: stimulant Histamine (20 μM); Lipid-conjugate 15 μM
Method: A muscle preparation (tracheal rings) was isolated from rats (Experiments 3.1-3.3) and from guinea pigs (Experiments 3.4-3.5). Muscle contraction was measured by attachment of the muscle to a pressure transducer, which works much like a spring. Administration of asthmatogenic substances such as endothelin-1 (ET) and acetylcholine (AcCh) induces muscle contraction. Endothelins are released upon vascular endothelial injury, and they activate macrophages and act as strong chemo-attractants for circulating monocytes. Endothelins affect vascular smooth muscle fibroblast proliferation; help regulate vascular, airway, and intestinal smooth muscle tone; increase the activity of bone alkaline phosphatase; stimulate release of atrial natriuretic peptide (ANP) from atrial cardiocytes; inhibit the release of renin from glomeruli and modulate norepinephrine at sympathetic nerve termini. Opposing vasomotor effects are regulated through the binding of distinct endothelin receptors for vasoconstriction and vasodilation. Endothelins have been linked to atherosclerosis and various cardiovascular disease states. ET-1 is important in congestive heart failure, renal failure, pulmonary hypertension, hyperlipidemia and metastatic prostate cancer. On the other hand, AcCh is one of the three main receptors on the bronchi of the lungs, which are basically tubes with muscular walls. Stimulation of bronchial AcCh receptor induces muscle contraction and decreased airflow through the bronchi. Thus, ET and AcCh were used to experimentally induce muscle contraction in the lungs as a model of obstructive respiratory disorders.
Experiment 3.4: Guinea pig tracheal rings (in a linear array), immersed in a ringer bath, were connected to an apparatus measuring the length of the ring chain. […] Human airways have both Histamine (H)-1 and H2 receptors. H1 receptors, which mediate bronchoconstriction, predominate. Histamine application in experimental models produces signs and symptoms of asthma, such as narrowing of the airways, mucus secretion, wheezing, and coughing.

| Substance | HIV infectivity (HIV) | IC50 (HIV-1IIIB) | IC50 (mean ± SD), inhibition of p24 production (HIV-1IIIB) | IC90 (HIV-1IIIB) | IC90 (mean ± SD), inhibition of p24 production (HIV-1IIIB) | IC50 (mean ± SD), inhibition of fusion [1] | IC90 (mean ± SD), inhibition of fusion [1] | IC50 [1] | IC90 [1] | IC50 [2] | toxicity: mortality rate, body weight, blood count, hematocrit, internal organ histology (mice) | also measured |
| --- | --- | --- | --- | --- | --- | --- | --- | --- | --- | --- | --- | --- |
| dipalmitoyl-PE conjugated to HA [Compound XXII] | prevent HIV infection of cells | 3.11 µM | 207.0 ± 18.0 µg/mL | 5.76 µM | 384.3 ± 79.3 µg/mL | >500 µg/mL | >500 µg/mL | > 7.5 µM | > 7.5 µM | 45 µM | did not alter the parameters | cytokine production induced by LPS or LPS + LTA (TNF-α and IL-6 in serum; 150 mg/kg, 5 mg/kg i.p. LPS, or LPS + 5 mg/kg i.p. LTA, 1 and 6 hours): effective in suppressing cytokine production; endotoxin-induced cytokine production (TNF-α and IL-6 in serum; i.v. at the same time as LPS i.p., versus i.p. pretreatment): suppressed equally well; Body weight (g) Final (mice; 250 mg/kg body weight): 23.1 ± 0.6 g; Hematocrit % (mice; 250 mg/kg body weight): 43.3 ± 0.7%; RBC × 10^6 (mice; 250 mg/kg body weight): 11.4 ± 0.1 × 10^6; WBC × 10^3 (mice; 250 mg/kg body weight): 7.7 ± 0.2 × 10^3; Body weight (g) Start (mice; 250 mg/kg body weight): 22.1 ± 0.4 g; Body weight (g) Final (mice; 500 mg/kg body weight): 22.3 ± 0.4 g; Hematocrit % (mice; 500 mg/kg body weight): 44.7 ± 2.3%; RBC × 10^6 (mice; 500 mg/kg body weight): 11.5 ± 0.3 × 10^6; WBC × 10^3 (mice; 500 mg/kg body weight): 8.1 ± 1.3 × 10^3; Body weight (g) Start (mice; 500 mg/kg body weight): 21.4 ± 0.3 g; Body weight (g) Final (mice; 1000 mg/kg body weight): 22.1 ± 0.2 g; Hematocrit % (mice; 1000 mg/kg body weight): 40.3 ± 0.7%; RBC × 10^6 (mice; 1000 mg/kg body weight): 10.9 ± 0.4 × 10^6; WBC × 10^3 (mice; 1000 mg/kg body weight): 7.4 ± 0.6 × 10^3; Body weight (g) Start (mice; 1000 mg/kg body weight): 21.7 ± 0.2 g |
| dipalmitoyl-phosphatidyl-ethanolamine conjugated to heparin [Compound XXIV] | prevent HIV infection of cells | 0.7 µM | 10.0 ± 2.3 µg/mL | 1.35 µM | 19.3 ± 4.5 µg/mL | 7.9 ± 1.3 µg/mL | 15.3 ± 3.9 µg/mL | 0.55 µM | 1.07 µM | 140 µM | did not alter the parameters | EC50 (Influenza B virus): 450 µg/mL; % Inhibition of tracheal ring contraction [3]: 56 ± 0.05% |
